Laboratory results published in patent publication US20260158009A1 (GENZYME CORPORATION, priority 2023, published 2026).

What was measured:
[1] = target: T1, hRIPK1 (aa 1-375) fusion protein (Homo sapiens, UniProt Q13546); assay: ADP-Glo kinase assay: catalytic activity of RIPK1 (autophosphorylation, conversion of ATP to ADP); type: biochemical
T1 construct: hRIPK1 (aa 1-375) fusion protein
T1 sequence (Q13546 1-375): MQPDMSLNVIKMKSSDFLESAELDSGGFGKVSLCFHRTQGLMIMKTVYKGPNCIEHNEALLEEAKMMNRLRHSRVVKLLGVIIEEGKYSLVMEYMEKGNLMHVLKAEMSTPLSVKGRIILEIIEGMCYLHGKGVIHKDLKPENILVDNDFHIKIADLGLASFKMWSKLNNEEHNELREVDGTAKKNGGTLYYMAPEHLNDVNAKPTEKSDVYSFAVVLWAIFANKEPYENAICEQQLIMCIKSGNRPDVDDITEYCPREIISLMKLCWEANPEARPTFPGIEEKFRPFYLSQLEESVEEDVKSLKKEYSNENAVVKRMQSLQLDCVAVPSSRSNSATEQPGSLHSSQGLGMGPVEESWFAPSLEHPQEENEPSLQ
Method: The catalytic activity of RIPK1 was measured by monitoring the conversion of Adenosine triphosphate (ATP) to Adenosine diphosphate (ADP) due to autophosphorylation using an ADP-Glo kinase kit (Promega, catalog no. V9104).
In detail, 2 μl recombinantly produced hRIPK1 (aa 1-375) fusion protein (end concentration 3.6 μg/ml) and 2 μl compound (end concentration 33300-1.69 nM; DMSO end concentration 1%) were incubated for 30 minutes at room temperature and then 2 μl ATP (ADP Glo kit, end concentration 50 μM) were added. After another 240 minutes incubation at room temperature, 5 μl Promega ADP-Glo reagent I was added to quench the reaction and deplete unconsumed ATP. After an incubation period of 30 minutes, 10 μl Promega ADP-Glo detection reagent II was added resulting in conversion of ADP to ATP, which generates a light-reaction between luciferase and luciferin. Luminescence was quantified after 30 minutes with a Pherastar FS (BMG LABTECH, Ortenberg).
The adjustment was obtained by nonlinear regression using the Levenberg Marquardt algorithm.

[2] = system: U937 cells; assay: Cellular assay in U937 cells: activity of RIPK1 inhibitors on TNFα/zVAD.fmk-induced cell death (necroptosis), CellTiter 96 AQueous (MTS) readout; type: cell-based; details: Homo sapiens, U-937
From the text: Upon TNF-Receptor I ligation, Ser/Thr kinase RIPK1 is recruited to a transient receptor complex 1. Upon modification of RIPK1 which promotes activation of RIPK1, complex IIb can form, that involves recruitment of RIPK3 and MLKL (mixed lineage-kinase domain-like protein) which then translocates from the cytosol to the plasma membrane to execute cell death (Cai, Z. et al, Nat. Cell Biol. (2014) 16:55-65).
Cell death was quantified in 96 well plates by determination of the amount of live cell using a CellTiter 96 AQueous reagent (Promega), a calorimetric method to measure the number of live cells by reducing tetrazolium compound [3-(4,5-dimethylthiazol-2-yl)-5-(3-carboxymethoxyphenyl)-2-(4-sulfophenyl)-2H-tetrazolium, inner salt; MTS] into formazan. Absorbance of formazan was read at 490 nm. The inhibitory activity of the test compound was quantified in a concentration response curve (CRC) experiment.
Compounds were obtained as 10 mM stock solutions and were diluted 1 to 10 volumes with DMSO to yield a 1 mM solution. From this solution 2 μl were diluted with 998 μl growth medium. 100 μl of 2 μM compound solution was further diluted sequentially with a dilution factor of 2.5 by adding 150 μl growth medium. A total of 10 concentrations were tested ranging from 10 μM to 0.26 nM or from 1 μM to 0.07 nM.
U937 cells were cultured in RPMI1640 Glutamax and 10% heat inactivated FBS. 50 μl cell suspension containing 1×10^6 cells/ml supplemented with 50 μM zVAD.fmk (Benzyloxycarbonyl-Val-Ala-Asp (OMe) fluoromethylketone) and 100 ng/ml recombinant human TNF[…] were dispensed in each well of a 96-well plate. 50 μl of compound dilutions (described in Cellular assay in U937 cells) were added and the cell suspension incubated overnight (18 to 24 hrs) at 37° C., 5% CO2 in a humidified atmosphere (95% rH). High (no compound) and low control (no TNF[…], zVAD.fmk) were tested with 7 replicates; all compound concentrations were tested in duplicates on each experimental plate.
CellTiter 96 Aqueous reagent was mixed (100 μl PMS (phenazine methosulfate) solution/2 ml MTS (3-(4,5-[…])-5-(3-carboxymethoxyphenyl)-2-(4-sulfophenyl)-2H-tetrazolium, inner salt) solution) and 20 μl were added per well. After 4 hrs incubation at 37° C. (5% CO2 95% rH) optical density was measured at 490 nm on a microplate reader (Tecan Infinite M1000).
The % inhibition is expressed as percentage of the maximal inhibition value obtained in the absence of TNFα/zVAD.fmc.

SMILES | IC50 [1] | IC50 [2]
O=C([C@H]1CC[C@H](Cn2cnc3ccccc32)CC1)N1OCC[C@H]1c1cncc(F)c1 [compound 9, trans-(4-((1H-benzo[d]imidazol-1-yl)methyl)cyclohexyl)((S)-3-(5-fluoropyridin-3-yl)isoxazolidin-2-yl)methanone] | 0.113 µM | 0.174 µM
N#Cc1cc2ncn(C[C@H]3CC[C@H](C(=O)N4OCC[C@H]4c4cc(F)cc(F)c4)CC3)c2cc1F [compound 10, trans-1-((4-((S)-3-(3,5-difluorophenyl)isoxazolidine-2-carbonyl)cyclohexyl)methyl)-6-fluoro-1H-benzo[d]imidazole-5-carbonitrile] | 0.043 µM | 0.008 µM
N#Cc1cc(F)cc([C@@H]2CCON2C(=O)[C@H]2CC[C@H](Cn3cnc4cc(C#N)c(F)cc43)CC2)c1 [compound 11, trans-1-((4-((S)-3-(3-cyano-5-fluorophenyl)isoxazolidine-2-carbonyl)cyclohexyl)methyl)-6-fluoro-1H-benzo[d]imidazole-5-carbonitrile] | 0.059 µM | 0.038 µM
N#Cc1cc2c(cc1F)ncn2C[C@H]1CC[C@H](C(=O)N2OCC[C@H]2c2cc(F)cc(F)c2)CC1 [compound 12, trans-1-((4-((S)-3-(3,5-difluorophenyl)isoxazolidine-2-carbonyl)cyclohexyl)methyl)-5-fluoro-1H-benzo[d]imidazole-6-carbonitrile] | 0.033 µM | 0.003 µM
N#Cc1cc(F)cc([C@@H]2CCON2C(=O)[C@H]2CC[C@H](Cn3cnc4cc(F)c(C#N)cc43)CC2)c1 [compound 13, trans-1-((4-((S)-3-(3-cyano-5-fluorophenyl)isoxazolidine-2-carbonyl)cyclohexyl)methyl)-5-fluoro-1H-benzo[d]imidazole-6-carbonitrile] | 0.033 µM | 0.005 µM
N#Cc1cc(F)cc([C@@H]2CCON2C(=O)[C@H]2CC[C@H](Cn3ccc4ncccc43)CC2)c1 [compound 14, trans-3-((S)-2-(4-((1H-pyrrolo[3,2-b]pyridin-1-yl)methyl)cyclohexane-1-carbonyl)isoxazolidin-3-yl)-5-fluorobenzonitrile] | 0.05 µM | 0.003 µM
N#Cc1cc(F)cc([C@@H]2CCON2C(=O)[C@H]2CC[C@H](Cn3ccc4cnccc43)CC2)c1 [compound 15, trans-3-((S)-2-(4-((1H-pyrrolo[3,2-c]pyridin-1-yl)methyl)cyclohexane-1-carbonyl)isoxazolidin-3-yl)-5-fluorobenzonitrile] | 0.046 µM | 0.011 µM
N#Cc1cc(F)cc([C@@H]2CCON2C(=O)[C@H]2CC[C@H](Cn3ccc4ccncc43)CC2)c1 [compound 16, trans-3-((S)-2-(4-((1H-pyrrolo[2,3-c]pyridin-1-yl)methyl)cyclohexane-1-carbonyl)isoxazolidin-3-yl)-5-fluorobenzonitrile] | 0.039 µM | 0.006 µM
N#Cc1cnc2ccn(C[C@H]3CC[C@H](C(=O)N4OCC[C@H]4c4cc(F)cc(F)c4)CC3)c2c1 [compound 17, trans-1-((4-((S)-3-(3,5-difluorophenyl)isoxazolidine-2-carbonyl)cyclohexyl)methyl)-1H-pyrrolo[3,2-b]pyridine-6-carbonitrile] | 0.021 µM | 0.002 µM
N#Cc1cc(F)cc([C@@H]2CCON2C(=O)[C@H]2CC[C@H](Cn3c(=O)oc4ccccc43)CC2)c1 [compound 18, trans-3-fluoro-5-((S)-2-(4-((2-oxobenzo[d]oxazol-3(2H)-yl)methyl)cyclohexane-1-carbonyl)isoxazolidin-3-yl)benzonitrile] | 0.019 µM | 0.016 µM
N#Cc1cc(F)cc([C@@H]2CCON2C(=O)[C@H]2CC[C@H](Cn3ccc4ncc(Cl)cc43)CC2)c1 [compound 19, trans-3-((S)-2-(4-((6-chloro-1H-pyrrolo[3,2-b]pyridin-1-yl)methyl)cyclohexane-1-carbonyl)isoxazolidin-3-yl)-5-fluorobenzonitrile] | 0.028 µM | 0.005 µM
O=c1oc2ccccc2n1C[C@H]1CC[C@H](C(=O)N2OCC[C@H]2c2cc(F)cc(F)c2)CC1 [compound 20, trans-3-((4-((S)-3-(3,5-difluorophenyl)isoxazolidine-2-carbonyl)cyclohexyl)methyl)benzo[d]oxazol-2(3H)-one] | 0.02 µM | 0.005 µM
O=C([C@H]1CC[C@H](Cn2ccc3ncc(Cl)cc32)CC1)N1OCC[C@H]1c1cc(F)cc(F)c1 [compound 21, trans-(4-((6-chloro-1H-pyrrolo[3,2-b]pyridin-1-yl)methyl)cyclohexyl)((S)-3-(3,5-difluorophenyl)isoxazolidin-2-yl)methanone] | 0.025 µM | 0.005 µM
N#Cc1cc(F)cc([C@@H]2CCON2C(=O)[C@H]2CC[C@H](Cn3ccc4cc(F)c(C#N)cc43)CC2)c1 [compound 22, trans-1-((4-((S)-3-(3-cyano-5-fluorophenyl)isoxazolidine-2-carbonyl)cyclohexyl)methyl)-5-fluoro-1H-indole-6-carbonitrile] | 0.02 µM | 0.002 µM
N#Cc1cc2c(ccn2C[C@H]2CC[C@H](C(=O)N3OCC[C@H]3c3cc(F)cc(F)c3)CC2)cc1F [compound 23, trans-1-((4-((S)-3-(3,5-difluorophenyl)isoxazolidine-2-carbonyl)cyclohexyl)methyl)-5-fluoro-1H-indole-6-carbonitrile] | 0.021 µM | 0.003 µM
N#Cc1cc(F)cc([C@@H]2CCON2C(=O)[C@H]2CC[C@H](Cn3cc4ncc(C#N)cc4n3)CC2)c1 [compound 24, trans-2-((4-((S)-3-(3-cyano-5-fluorophenyl)isoxazolidine-2-carbonyl)cyclohexyl)methyl)-2H-pyrazolo[4,3-b]pyridine-6-carbonitrile] | 0.109 µM | 0.471 µM
N#Cc1cnc2cn(C[C@H]3CC[C@H](C(=O)N4OCC[C@H]4c4cc(F)cc(F)c4)CC3)nc2c1 [compound 25, trans-2-((4-((S)-3-(3,5-difluorophenyl)isoxazolidine-2-carbonyl)cyclohexyl)methyl)-2H-pyrazolo[4,3-b]pyridine-6-carbonitrile] | 0.068 µM | 0.154 µM
N#Cc1cnc2cnn(C[C@H]3CC[C@H](C(=O)N4OCC[C@H]4c4cc(F)cc(F)c4)CC3)c2c1 [compound 26, trans-1-((4-((S)-3-(3,5-difluorophenyl)isoxazolidine-2-carbonyl)cyclohexyl)methyl)-1H-pyrazolo[4,3-b]pyridine-6-carbonitrile] | 0.02 µM | 0.002 µM
N#Cc1cc(F)cc([C@@H]2CCON2C(=O)[C@H]2CC[C@H](Cn3ncc4ncc(C#N)cc43)CC2)c1 [compound 27, trans-1-((4-((S)-3-(3-cyano-5-fluorophenyl)isoxazolidine-2-carbonyl)cyclohexyl)methyl)-1H-pyrazolo[4,3-b]pyridine-6-carbonitrile] | 0.006 µM | 0.002 µM
